Source: ChEMBL document CHEMBL5352386 (Eur J Med Chem, 2022)
pIC50: −log10 of the molar value. Calls of active or inactive are those of the source. The rule behind the calls is not given here.

Experiments:
[1] = Cytotoxicity against mouse BV-2 cells assessed as inhibition of cell growth measured after 24 hrs by MTT assay; format: toxicity, cell-based
[2] = Tmax in Sprague-Dawley rat at 10 mg/kg, po measured upto 1440 mins by LC/MS/MS analysis; format: ADME, organism-based; details: in vivo
[3] = Metabolic stability in human liver microsomes assessed as parent compound remaining at 1 uM incubated upto 50 mins in presence of NADPH by LC/MS/MS analysis; format: ADME, Microsome; details: read-out: Stability
[4] = Drug uptake in ICR mouse central nervous system; format: ADME, tissue-based; details: in vivo
Mus musculus [5] = assay: Neuroprotective activity against Abeta42 induced cognition impairement in AD ICR mouse model assessed as increase in ghrelin level in mouse brain administered as oral dose for 21 days; format: functional, organism-based; details: time 21.0 day
SH-SY5Y [6] = assay: Cytotoxicity against human SH-SY5Y cells assessed as survival rate at 100 uM measured after 24 hrs by MTT assay relative to control; format: functional; details: read-out: Survival
[7] = MRT infinity in Sprague-Dawley rat at 10 mg/kg, po measured upto 1440 mins by LC/MS/MS analysis; format: ADME, organism-based; details: in vivo
[8] = Oral bioavailability in Sprague-Dawley rat at 10 mg/kg measured upto 1440 mins by LC/MS/MS analysis; format: ADME, organism-based; details: in vivo
Mus musculus [9] = assay: Neuroprotective activity against Abeta42 induced cognition impairement in AD ICR mouse model assessed as increase in body weight at 10 mg/kg measured after 21 days; format: functional, organism-based; details: time 21.0 day
[10] = Cmax in ICR mouse brain administered as oral dose by LC/MS/MS analysis; format: ADME, tissue-based; design: route po
[11] = Ratio of drug exposure in plasma to brain in ICR mouse measured after 120 mins by LC/MS/MS analysis; format: ADME, cell-free; details: in vivo, 2 h
Mus musculus [12] = assay: Neuroprotective activity against Abeta42 induced cognition impairement in AD mouse model assessed as reduction in confusion of escape trajectory at 10 mg/kg, po measured after 14 days; format: functional, organism-based; details: time 14.0 day
SH-SY5Y [13] = assay: Neuroprotective activity against glutamate induced toxicity in human SH-SY5Y cells at low concentration preincubated for 1 hr with compound followed by co-incubation with glutamate and measured after 24 hrs by MTT assay; format: functional, cell-based; details: time 25.0 hrs
PC-12 [14] = assay: Cytotoxicity against rat PC12 cells assessed as survival rate at 100 uM measured after 24 hrs by MTT assay relative to control; details: PC-12, 24 h, read-out: Survival
[15] = Acute toxicity in overnight fasted male ICR mouse assessed as abnormal behavior at 1 g/Kg, IG administered as single dose measured upto 15 days; details: in vivo, po, 1000 mg/kg, 360 h, time < 15 day
[16] = Cmax in ICR mouse plasma administered as oral dose by LC/MS/MS analysis; format: ADME; design: route po
[17] = AUC (0 to t) in Sprague-Dawley rat at 10 mg/kg, iv measured upto 1440 mins by LC/MS/MS analysis; format: ADME, organism-based; design: time < 1440 min, dose 10 mg/kg, route iv; details: in vivo
[18] = Ratio of drug exposure in plasma to brain in ICR mouse measured after 240 by LC/MS/MS analysis; format: ADME, cell-free; details: in vivo, 4 h, time 240 min
[19] = MRT infinity in Sprague-Dawley rat at 10 mg/kg, iv measured upto 1440 mins by LC/MS/MS analysis; format: ADME, organism-based; details: in vivo
[20] = Acute toxicity in overnight fasted male ICR mouse assessed as animal death at 1 g/Kg, IG administered as single dose measured upto 15 days; details: in vivo, po, 1000 mg/kg, 360 h, time < 15 day
[21] = Ratio of drug exposure in plasma to brain in ICR mouse measured after 60 mins by LC/MS/MS analysis; format: ADME, cell-free; details: in vivo, 1 h
[22] = Half life in Sprague-Dawley rat at 10 mg/kg, iv measured upto 1440 mins by LC/MS/MS analysis; format: ADME, organism-based; details: in vivo
L02 = assay: Cytotoxicity against human L02 cells assessed as survival rate at 100 uM measured after 24 hrs by MTT assay relative to control; format: functional; details: read-out: Survival
[23] = Acute toxicity in overnight fasted male ICR mouse assessed as body weight loss at 1 g/Kg, IG administered as single dose measured upto 15 days; details: in vivo, po, 1000 mg/kg, 360 h, time < 15 day
Mus musculus [24] = assay: Neuroprotective activity against Abeta42 induced cognition impairement in AD ICR mouse model assessed as increase in ghrelin level in mouse plasma administered as oral dose for 21 days; format: functional, organism-based; details: time 21.0 day
BV-2 = assay: Induction of antioxidant effect in mouse BV-2 cells assessed as prevention of LPS-induced ROS production preincubated for 1 hr with compound followed by LPS stimulation and measured after 24 hrs by DCFH-DA staining based inverted fluorescence microscopy analysis; format: functional, cell-based; details: time 25.0 hrs
[25] = Acute toxicity in overnight fasted female ICR mouse assessed as body weight loss at 1 g/Kg, IG administered as single dose measured upto 15 days; details: in vivo, po, 1000 mg/kg, 360 h, time < 15 day
[26] = Ratio of AUCt in ICR mouse brain to AUCt in ICR mouse plasma; format: ADME, cell-free
[27] = Cmax in Sprague-Dawley rat at 10 mg/kg, iv measured upto 1440 mins by LC/MS/MS analysis; format: ADME, organism-based; design: dose 10 mg/kg, time < 1440 min, route iv; details: in vivo
[28] = Ratio of drug exposure in plasma to brain in ICR mouse measured after 480 mins by LC/MS/MS analysis; format: ADME, cell-free; details: in vivo, 8 h
[29] = Ratio of drug exposure in plasma to brain in ICR mouse measured after 20 mins by LC/MS/MS analysis; format: ADME, cell-free; details: in vivo
Cholinesterase [30] = target: Cholinesterase (Equus caballus, UniProt P81908); assay: Inhibition of equine serum BuChE using butyrylthiocholine iodide as substrate incubated for 10 mins followed by substrate addition by DTNB-reagent based Ellman's colorimetric assay
[31] = AUC (0 to t) in ICR mouse brain administered as oral dose by LC/MS/MS analysis; format: ADME, tissue-based; design: route po
[32] = Acute toxicity in overnight fasted female ICR mouse assessed as abnormal behavior at 1 g/Kg, IG administered as single dose measured upto 15 days; details: in vivo, po, 1000 mg/kg, 360 h, time < 15 day
[33] = Ratio of drug exposure in plasma to brain in ICR mouse measured after 30 mins by LC/MS/MS analysis; format: ADME, cell-free; details: in vivo, 0.5 h
Cholinesterase [34] = target: Cholinesterase (Homo sapiens, UniProt P06276); assay: Inhibition of human BuChE using butyrylthiocholine iodide as substrate incubated for 10 mins followed by substrate addition by DTNB-reagent based Ellman's colorimetric assay
[35] = AUC (0 to t) in ICR mouse plasma administered as oral dose by LC/MS/MS analysis; format: ADME; design: route po
[36] = AUC (0 to infinity) in Sprague-Dawley rat at 10 mg/kg, po measured upto 1440 mins by LC/MS/MS analysis; format: ADME, organism-based; design: dose 10 mg/kg, time < 1440 min, route po; details: in vivo
[37] = AUC (0 to infinity) in Sprague-Dawley rat at 10 mg/kg, iv measured upto 1440 mins by LC/MS/MS analysis; format: ADME, organism-based; design: dose 10 mg/kg, time < 1440 min, route iv; details: in vivo
[38] = AUC (0 to t) in Sprague-Dawley rat at 10 mg/kg, po measured upto 1440 mins by LC/MS/MS analysis; format: ADME, organism-based; design: time < 1440 min, dose 10 mg/kg, route po; details: in vivo
PC-12 [39] = assay: Cytoprotective activity against H2O2 induced cell damage in rat PC12 cells at 10 to 20 uM preincubated for 1 hr with compound followed by co-incubation with H2O2 and measured after 24 hrs by MTT assay; format: functional, cell-based; details: dose 10-20 µM, time 25.0 hrs
[40] = Metabolic stability in human liver microsomes assessed as half life at 1 uM incubated upto 50 mins in presence of NADPH by LC/MS/MS analysis; format: ADME, Microsome
Mus musculus [41] = assay: Neuroprotective activity against Abeta42 induced cognition impairement in AD mouse model assessed as reduction in latency time to platform at 10 mg/kg, po measured after 14 days by Morris water maze analysis; format: functional, organism-based; details: time 14.0 day
[42] = Ratio of drug exposure in plasma to brain in ICR mouse measured after 10 mins by LC/MS/MS analysis; format: ADME, cell-free; details: in vivo
[43] = Ratio of Cmax in ICR mouse brain to Cmax in ICR mouse plasma; format: ADME, cell-free
SH-SY5Y [44] = assay: Induction of antioxidant effect in human SH-SY5Y cells assessed as prevention of Abeta1-42 induced ROS production preincubated for 1 hr with compound followed by Abeta1-42 stimulation and measured after 24 hrs by DCFH-DA staining based inverted fluorescence microscopy analysis; format: functional, cell-based; details: time 25.0 hrs
SH-SY5Y [45] = assay: Neuroprotective activity against Abeta1-42 induced toxicity in human SH-SY5Y cells at 1 to 5 uM preincubated for 1 hr with compound followed by co-incubation with Abeta1-42 and measured after 24 hrs by MTT assay; format: functional, cell-based; details: dose 1-5 µM, time 25.0 hrs
SH-SY5Y [46] = assay: Neuroprotective activity against glutamate induced toxicity in human SH-SY5Y cells assessed as effect on cell survival rate at 10 to 20 uM preincubated for 1 hr with compound followed by co-incubation with glutamate and measured after 24 hrs by MTT assay; format: functional, cell-based; details: dose 10-20 µM, time 25.0 hrs
[47] = Acute toxicity in overnight fasted female ICR mouse assessed as animal death at 1 g/Kg, IG administered as single dose measured upto 15 days; details: in vivo, po, 1000 mg/kg, 360 h, time < 15 day
[48] = Cmax in Sprague-Dawley rat at 10 mg/kg, po measured upto 1440 mins by LC/MS/MS analysis; format: ADME, organism-based; design: time < 1440 min, dose 10 mg/kg, route po; details: in vivo, 24 h
[49] = Half life in Sprague-Dawley rat at 10 mg/kg, po measured upto 1440 mins by LC/MS/MS analysis; format: ADME, organism-based; details: in vivo
[50] = Tmax in Sprague-Dawley rat at 10 mg/kg, iv measured upto 1440 mins by LC/MS/MS analysis; format: ADME, organism-based; details: in vivo
[51] = Cytotoxicity against mouse BV-2 cells assessed as survival rate at 100 uM measured after 24 hrs by MTT assay relative to control; format: toxicity, cell-based; details: read-out: Survival

Sequence of Cholinesterase (Homo sapiens, UniProt P06276) (P06276 whole entry): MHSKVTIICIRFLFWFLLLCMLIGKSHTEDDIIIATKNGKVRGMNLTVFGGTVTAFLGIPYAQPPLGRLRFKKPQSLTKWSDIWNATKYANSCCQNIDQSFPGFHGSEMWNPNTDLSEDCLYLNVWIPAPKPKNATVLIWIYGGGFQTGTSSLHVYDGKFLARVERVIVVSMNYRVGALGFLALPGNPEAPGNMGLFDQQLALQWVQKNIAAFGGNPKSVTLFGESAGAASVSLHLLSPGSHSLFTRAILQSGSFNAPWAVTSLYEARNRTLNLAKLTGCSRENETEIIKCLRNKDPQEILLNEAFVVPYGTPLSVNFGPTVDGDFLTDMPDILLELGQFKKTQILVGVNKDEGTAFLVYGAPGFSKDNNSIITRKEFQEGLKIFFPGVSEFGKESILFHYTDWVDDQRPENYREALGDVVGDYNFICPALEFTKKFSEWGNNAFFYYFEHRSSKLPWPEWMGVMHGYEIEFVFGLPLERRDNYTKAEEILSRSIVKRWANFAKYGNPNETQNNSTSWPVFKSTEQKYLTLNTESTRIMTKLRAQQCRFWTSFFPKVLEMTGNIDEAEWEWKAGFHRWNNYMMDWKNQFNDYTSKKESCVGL
Sequence of Cholinesterase (Equus caballus, UniProt P81908) (P81908 whole entry): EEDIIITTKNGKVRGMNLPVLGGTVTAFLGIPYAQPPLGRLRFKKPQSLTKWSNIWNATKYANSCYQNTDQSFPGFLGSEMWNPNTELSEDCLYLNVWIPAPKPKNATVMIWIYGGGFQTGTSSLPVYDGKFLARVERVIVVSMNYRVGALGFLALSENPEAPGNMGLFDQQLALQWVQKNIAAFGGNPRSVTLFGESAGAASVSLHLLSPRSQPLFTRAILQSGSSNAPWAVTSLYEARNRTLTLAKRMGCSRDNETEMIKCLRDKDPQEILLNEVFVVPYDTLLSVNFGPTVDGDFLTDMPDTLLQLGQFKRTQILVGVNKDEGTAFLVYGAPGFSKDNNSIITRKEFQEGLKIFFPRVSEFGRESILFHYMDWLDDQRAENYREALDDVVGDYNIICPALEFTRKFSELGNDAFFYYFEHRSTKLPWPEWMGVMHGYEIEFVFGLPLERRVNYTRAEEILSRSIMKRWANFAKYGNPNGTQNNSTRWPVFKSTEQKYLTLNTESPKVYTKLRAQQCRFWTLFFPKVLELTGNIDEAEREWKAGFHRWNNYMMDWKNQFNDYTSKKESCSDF

N#Cc1cc(Br)cc(NC(=O)Cn2c(-c3nonc3N)nc3ccccc32)c1
IC50 at 24 h [1]: 27800 nM
Tmax [2]: 0.158 h
remaining at 50 min, 1 µM [3]: 89.7%
Drug uptake [4]: Active
Activity (Mus musculus [5]): Active
viability at 100 µM (SH-SY5Y [6]): 57.8%
MRT inf [7]: 11.6 h
bioavailability [8]: 73.4%
Activity (Mus musculus [9]): Active
Cmax [10]: 179 ng/mL
Ratio [11]: 0.54
Activity (Mus musculus [12]): Active
Activity (SH-SY5Y [13]): Active
viability at 100 µM (PC-12 [14]): 54.6%
Activity [15]: Non-Toxic
Cmax [16]: 1760 ng/mL
AUC(0-t) at 24 h ([17]; Sprague-Dawley): 860 ng·h/mL
Ratio [18]: 0.27
MRT inf [19]: 14.1 h
Activity [20]: Non-Toxic
Ratio [21]: 0.27
half-life [22]: 8.87 h
viability at 100 µM (L02): 72.4%
Activity [23]: Non-Toxic
Activity (Mus musculus [24]): Active
Activity (BV-2): Active
Activity [25]: Non-Toxic
Kp [26]: 0.31
Cmax ([27]; Sprague-Dawley, read-out: Cmax): 488 ng/mL
Ratio [28]: 0.88
Ratio [29]: 2.23
pIC50 (Cholinesterase [30]): 9.82
AUC(0-t) [31]: 356 ng·h/mL
Activity [32]: Non-Toxic
Ratio [33]: 0.82
pIC50 (Cholinesterase [34]): 7.34
AUC(0-t) [35]: 1160 ng·h/mL
AUC(0-inf) [36]: 662 ng·h/mL
AUC(0-inf) ([37]; Sprague-Dawley): 1090 ng·h/mL
AUC(0-t) at 24 h [38]: 628 ng·h/mL
Activity (PC-12 [39]): Active
half-life at 1 µM [40]: 5.75 h
Activity (Mus musculus [41]): Active
Ratio [42]: 13.33
Kp [43]: 0.1
Activity (SH-SY5Y [44]): Active
Activity (SH-SY5Y [45]): Active
Activity (SH-SY5Y [46]): Active
Activity [47]: Non-Toxic
Cmax [48]: 44.73 ng/mL
half-life [49]: 5.47 h

Nc1nonc1-c1nc2ccccc2n1CC(=O)Nc1cnc2ccccc2c1
Tmax [2]: 0.18 h
viability at 100 µM (SH-SY5Y [6]): 62.2%
MRT inf [7]: 7.37 h
bioavailability [8]: 23.6%
AUCt ([17]; 24 h): 15662.39 ng·h/mL
MRT inf [19]: 3.11 h
Tmax [50]: 1 min
half-life [22]: 2.68 h
viability at 100 µM (L02): 70.6%
Cmax ([27]; 24 h): 9752.7 ng/mL
viability at 24 h, 100 µM [51]: 62.7%
pIC50 (Cholinesterase [34]): 7.30
AUC(0-inf) [36]: 3780 ng·h/mL
AUC ([37]; 24 h): 15988.79 ng·h/mL
AUC(0-t) at 24 h [38]: 3360 ng·h/mL
Cmax [48]: 975.05 ng/mL
half-life [49]: 4.74 h
